From patent publication US10596223B2, “JNK inhibitor molecules for treatment of various diseases” (Xigen Inflammation Ltd., priority 2011, dated 2020)
pIC50: −log10 of the molar value. Square brackets hold non-standard residues; d marks the D form. Ends that are not written are not given here. Peptide text beside a SMILES is read from it.

Tests used:
hJNK2 = hJNK2 (Homo sapiens, UniProt P45984); experiment: hJNK2 | IC50
Excerpt: (§1) Table printed on a drawing sheet, Fig. 2 Head of the field: hJNK2 | IC50 The patent's description of the figure: FIG. 2: Table illustrating the inhibitory efficacy of several JNK inhibitors (SEQ ID NOs: 193, 2, 3, 5, 6, and 7) according to the present invention. Given are the IC50 values in the nM range, the respective standard error of the mean and the number of experiments performed (n). First copying reader's note: The sheet prints no unit for IC50 and SEM; decimal commas are used and lower-case residue letters are as printed. Where the first naming reader finds the target: head: hJNK2

hJNK3 = hJNK3 (Homo sapiens, UniProt P53779); experiment: hJNK3 | IC50
hJNK3, sequence (P53779 whole entry, looked up): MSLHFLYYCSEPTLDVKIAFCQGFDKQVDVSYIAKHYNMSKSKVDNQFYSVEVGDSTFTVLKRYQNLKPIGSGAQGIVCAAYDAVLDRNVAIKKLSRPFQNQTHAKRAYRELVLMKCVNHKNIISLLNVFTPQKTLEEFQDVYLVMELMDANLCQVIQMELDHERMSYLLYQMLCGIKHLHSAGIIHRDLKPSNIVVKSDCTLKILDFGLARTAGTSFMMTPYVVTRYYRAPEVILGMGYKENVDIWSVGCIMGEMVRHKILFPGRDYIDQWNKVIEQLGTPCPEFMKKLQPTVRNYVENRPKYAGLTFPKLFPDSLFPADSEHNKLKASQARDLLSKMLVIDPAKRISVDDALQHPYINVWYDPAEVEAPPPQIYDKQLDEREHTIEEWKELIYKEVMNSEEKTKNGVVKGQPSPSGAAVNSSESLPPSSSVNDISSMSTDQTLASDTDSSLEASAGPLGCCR
Excerpt: as §1, with “hJNK3” for “hJNK2”

hJNK1 = hJNK1 (Homo sapiens, UniProt P45983); experiment: hJNK1 | IC50
hJNK1, sequence (P45983 whole entry, looked up): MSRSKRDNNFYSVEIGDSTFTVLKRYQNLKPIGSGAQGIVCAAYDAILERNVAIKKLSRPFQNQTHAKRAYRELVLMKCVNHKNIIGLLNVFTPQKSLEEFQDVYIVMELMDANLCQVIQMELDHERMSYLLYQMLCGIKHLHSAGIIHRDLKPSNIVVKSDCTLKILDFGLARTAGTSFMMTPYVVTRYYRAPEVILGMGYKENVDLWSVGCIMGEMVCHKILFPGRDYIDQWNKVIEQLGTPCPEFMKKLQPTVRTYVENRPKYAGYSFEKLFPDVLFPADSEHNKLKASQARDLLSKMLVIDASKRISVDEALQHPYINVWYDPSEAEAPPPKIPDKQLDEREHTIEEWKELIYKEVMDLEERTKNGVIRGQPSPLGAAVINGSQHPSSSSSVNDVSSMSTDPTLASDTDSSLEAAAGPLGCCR
Excerpt: as §1, with “hJNK1” for “hJNK2”

[1] = system: endotoxins-induced uveitis albino rat model; experiment: Endotoxins induced uveitis (EIU), single intravenous injection, clinical scoring 24 hours after LPS; assay type: in vivo; parameters: key to clinical score of ocular inflammation, mean score (mean±SEM) / clinical score of ocular inflammation, median: ocular inflammation score per eye, 0 = none to 4 = intense (+1 fibrin); conditions: 20 μg/eye sub-conjunctival, 24 hours after LPS
Experimental: FIG. 28 Clinical evaluation of administration of different amounts of the JNK inhibitor according to SEQ ID NO: 172 in albino rats after intravenous administration (endotoxins induced uveitis model). Form left to right: Vehicle, 0.015 mg/kg (i.v.) of SEQ ID NO: 172; 0.18 mg/kg (i.v.) of SEQ ID NO: 172; 1.8 mg/kg (i.v.) of SEQ ID NO: 172, 2 mg/kg (i.v.) of SEQ ID NO: 197 and 20 μg dexamethasone (administered directly by subconjunctival injection to the eye). Indicated is the clinical score (mean and the SEM).
The anti-inflammatory potency of the JNK inhibitor of SEQ ID NO: 172 was tested in albino rats following intravenous administration (EIU/LPS model). The aim of this study was to determine the effects of single intravenous injections of SEQ ID NO: 172 (0.015, 0.18, and 1.80 mg/kg) on the inflammatory response in an endotoxins-induced uveitis albino rat model and to compare these affects to those obtained with prior art JNK inhibitor of SEQ ID NO: 197 (2 mg/kg). As a further control served phosphate sodic dexamethasone.
Sixty (60) male Lewis rats were randomly divided into six (6) groups of ten (10) animals each. EIU was induced by footpad injection of lipopolysaccharide (LPS, 1 mg/kg). NaCl (0.9%), SEQ ID NO: 197 at 2 mg/kg and SEQ ID NO: 172 at three concentrations (1.80 mg/kg, 0.18 mg/kg and 0.015 mg/kg) were administered by intravenous injection. Phosphate sodic dexamethasone ([…]) was administered by sub-conjunctival injection in both eyes. 24 hours after LPS injection, inflammatory response was evaluated by clinical scoring.
The intensity of clinical ocular inflammation was scored on a scale from 0 to 4 for each eye: • Grade 0 no inflammation • Grade 1 slight iris and conjunctival vasodilation • Grade 2 moderate iris and conjunctival vasodilation with flare • Grade 3 intense iris and conjunctival vasodilation with flare • Grade 4 intense inflammatory reaction • (+1) fibrin formation and seclusion of pupils

[2] = Stability (half-life) in human serum, intact peptide by UPLC-MS; assay type: in vitro ADME; conditions: human serum (50% in FIG. 5; 10 and 50% in PBS), 0.1 mM peptide
Experimental: FIG. 5: Stability of JNK inhibitors with SEQ ID NOs: 172, 196 and 197 in 50% human serum. The JNK inhibitor with SEQ ID NO: 196 was totally degraded into amino acids residues within 6 hours (A). The JNK inhibitor with SEQ ID NO: 172 was completely degraded only after 14 days (B). The JNK inhibitor with SEQ ID NO: 197 was stable at least up to 30 days (B).
The JNK inhibitors with the sequence of SEQ ID NOs: 196, 197, and 172 (0.1 mM final concentration) were digested in human serum (10 and 50% in PBS 1×). The experiment was performed as described by Tugyi et al. (Proc Natl Acad Sci USA, 2005, 413-418). The remaining intact peptide was quantified by UPLC-MS. Stability was assessed for SEQ ID NOs: 196, 197, and 172 identically but in two separate assays. While the JNK inhibitor with SEQ ID NO: 196 was totally degraded into amino acids residues within 6 hours, the JNK inhibitor with SEQ ID NO: 172 was completely degraded only after 14 days. The JNK inhibitor with SEQ ID NO: 197 was still stable after 30 days.

Hela cells = experiment: Internalization of transporter constructs, 24 hours, fluorescence of cell extracts (FIG. 6); assay type: cell-based
Experimental: The transporter sequences analyzed correspond to SEQ ID NOs: 52-94 plus SEQ ID NOs: 45, 47, 46, 43 and 99 (FIG. 6a) and SEQ ID NOs: 100-147 (FIG. 6b). […] Hela cells were incubated 24 hours in 96 well plate with […] of the respective transporters. The cells were then washed twice with an acidic buffer (0.2M Glycin, 0.15M NaCl, pH 3.0) and twice with PBS. Cells were broken by the addition of RIPA lysis buffer. The relative amount of internalized peptide was then determined by reading the fluorescence intensity (Fusion Alpha plate reader; PerkinElmer) of each extract followed by background subtraction.
Hela cells were incubated 24 hours in 96 well plate with […] of the r3-L-TAT-derived transporters. The cells were then washed twice with an acidic buffer (0.2M Glycin, 0.15M NaCl, pH 3.0) and twice with PBS. Cells were broken by the addition of RIPA lysis buffer. The relative amount of internalized peptide was then determined by reading the fluorescence intensity (Fusion Alpha plate reader; PerkinElmer) of each extract followed by background subtraction

hJNK2, sequence (P45984 whole entry, looked up): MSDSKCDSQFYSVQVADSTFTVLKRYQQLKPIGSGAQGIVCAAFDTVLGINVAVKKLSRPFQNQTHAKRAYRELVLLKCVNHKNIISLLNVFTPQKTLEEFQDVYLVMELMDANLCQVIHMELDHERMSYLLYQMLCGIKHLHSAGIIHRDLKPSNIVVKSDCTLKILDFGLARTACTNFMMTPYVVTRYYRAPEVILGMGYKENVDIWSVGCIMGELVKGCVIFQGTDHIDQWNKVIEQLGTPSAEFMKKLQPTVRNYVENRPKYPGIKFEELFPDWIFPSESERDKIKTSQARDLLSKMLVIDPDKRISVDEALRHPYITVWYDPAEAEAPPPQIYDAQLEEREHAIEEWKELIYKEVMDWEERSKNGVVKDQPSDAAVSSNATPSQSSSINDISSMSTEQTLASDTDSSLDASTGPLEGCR

| Compound | pIC50 (hJNK2) | pIC50 (hJNK3) | pIC50 (hJNK1) | also measured |
| --- | --- | --- | --- | --- |
| CC(C)C[C@H](NC(=O)[C@H](CC(N)=O)NC(=O)[C@H](CC(C)C)NC(=O)[C@@H](NC(=O)[C@@H](NC(=O)[C@@H]1CCCN1C(=O)[C@H](CCCNC(=N)N)NC(=O)[C@H](CCCCN)NC(=O)[C@@H]1CCCN1C(=O)[C@H](N)CCCNC(=N)N)[C@@H](C)O)[C@@H](C)O)C(=O)N[C@@H](Cc1ccccc1)C(N)=O [SEQ ID NO: 2] (H-[dR]PKRPTTLNLF-NH2) | 6.37 | 6.99 |  |  |
| CC(C)C[C@H](NC(=O)[C@H](CC(N)=O)NC(=O)[C@H](CC(C)C)NC(=O)[C@@H](NC(=O)[C@@H](NC(=O)[C@@H]1CCCN1C(=O)[C@H](CCCNC(=N)N)NC(=O)[C@@H](CCCCN)NC(=O)[C@@H]1CCCN1C(=O)[C@@H](N)CCCNC(=N)N)[C@@H](C)O)[C@@H](C)O)C(=O)N[C@@H](Cc1ccccc1)C(N)=O [SEQ ID NO: 3] (H-RP[dK]RPTTLNLF-NH2) | 5.92 | 6.44 | 6.51 |  |
| CC(C)C[C@H](NC(=O)[C@@H](NC(=O)[C@@H](NC(=O)[C@@H]1CCCN1C(=O)[C@H](CCCNC(=N)N)NC(=O)[C@H](CCCCN)NC(=O)[C@@H]1CCCN1C(=O)[C@@H](N)CCCNC(=N)N)[C@@H](C)O)[C@@H](C)O)C(=O)N[C@H](CC(N)=O)C(=O)N[C@@H](CC(C)C)C(=O)N[C@@H](Cc1ccccc1)C(N)=O [SEQ ID NO: 5] (H-RPKRPTTL[dN]LF-NH2) |  | 6.41 | 6.46 |  |
| CC(C)C[C@H](NC(=O)[C@@H](NC(=O)[C@@H](NC(=O)[C@@H]1CCCN1C(=O)[C@H](CCCNC(=N)N)NC(=O)[C@H](CCCCN)NC(=O)[C@@H]1CCCN1C(=O)[C@@H](N)CCCNC(=N)N)[C@@H](C)O)[C@@H](C)O)C(=O)N[C@H](CCCNC(=N)N)C(=O)N[C@@H](CC(C)C)C(=O)N[C@@H](Cc1ccccc1)C(N)=O [SEQ ID NO: 6] (H-RPKRPTTL[dR]LF-NH2) | 6.45 | 6.92 | 7.04 |  |
| CC(C)C[C@H](NC(=O)[C@H](CC(N)=O)NC(=O)[C@H](CC(C)C)NC(=O)[C@@H](NC(=O)[C@@H](NC(=O)[C@@H]1CCCN1C(=O)[C@H](CCCNC(=N)N)NC(=O)[C@H](CCCCN)NC(=O)[C@@H]1CCCN1C(=O)[C@@H](N)CCCNC(=N)N)[C@@H](C)O)[C@@H](C)O)C(=O)N[C@H](Cc1ccccc1)C(N)=O [SEQ ID NO: 7] (H-RPKRPTTLNL[dF]-NH2) | 6.56 | 7.05 |  |  |
| C[C@@H]1C[C@H]2[C@@H]3CCC4=CC(=O)C=C[C@]4(C)[C@@]3(F)[C@@H](O)C[C@]2(C)[C@@]1(O)C(=O)CO [dexamethasone, reference compound] |  |  |  | clinical score of ocular inflammation, mean score (mean±SEM) [1]: 0.8±0.2; clinical score of ocular inflammation, median [1]: 0.5 |
| GRKKRRQRRRPPRPKRPTTLNLFPQVPRSQD [SEQ ID NO: 196, reference compound] |  |  |  | totally degraded into amino acids residues within [2]: ≤ 6 h |
| H-RPKRPTTLNLF-NH2 [SEQ ID NO: 193] | 6.74 | 7.17 | 7.40 |  |
| rYKRrQRRr ([dR]YKR[dR]QRR[dR]) [SEQ ID NO: 142] |  |  |  | transporter activity (Y in position 2) (Hela cells): highest transporter activity |
